The source of these data is ChEMBL document CHEMBL5608184, “Discovery and mechanistic insights into thieno[3,2-d]pyrimidine and heterocyclic fused pyrimidines inhibitors targeting tubulin for cancer therapy” (Eur J Med Chem, 2024).

What all share (format): functional
In experiment [1] the test system is SK-OV-3. The experiment can be described thus: Induction of apoptosis in human SK-OV-3 cells assessed as viable cells at 1.25 nM incubated for 48 hrs by Annexin V-APC-A/7-AAD-A staining based flow cytometry (reference value: 97.17 %). The settings on record: read-out: Activity. For orientation: A flow cytometer gives signals particle by particle.
In experiment [2] the test system is SK-OV-3. The experiment can be described thus: Induction of apoptosis in human SK-OV-3 cells assessed as viable cells at 0.625 nM incubated for 48 hrs by Annexin V-APC-A/7-AAD-A staining based flow cytometry (reference value: 97.17 %). The following applies: read-out: Activity.
In experiment [3] the test system is SK-OV-3. The experiment can be described thus: Induction of apoptosis in human SK-OV-3 cells assessed as necrotic cells at 5 nM incubated for 48 hrs by Annexin V-APC-A/7-AAD-A staining based flow cytometry (reference value: 0.48 %).
Experiment [4] relates to SK-OV-3. The experiment can be described thus: Induction of cell cycle arrest at G2/M phase in human SK-OV-3 cells at 0.625 nM incubated for 24 hrs by PI staining based flow cytometry (reference value: 29.73 %).
The test system of experiment [5] is SK-OV-3. The experiment can be described thus: Induction of apoptosis in human SK-OV-3 cells assessed as late apoptotic cells at 5 nM incubated for 48 hrs by Annexin V-APC-A/7-AAD-A staining based flow cytometry (reference value: 1.22 %).
Experiment [6] deals with SK-OV-3. The experiment can be described thus: Induction of apoptosis in human SK-OV-3 cells assessed as late apoptotic cells at 1.25 nM incubated for 48 hrs by Annexin V-APC-A/7-AAD-A staining based flow cytometry (reference value: 1.22 %).
The subject of experiment [7] is SK-OV-3. The experiment can be described thus: Induction of apoptosis in human SK-OV-3 cells assessed as necrotic cells at 0.625 nM incubated for 48 hrs by Annexin V-APC-A/7-AAD-A staining based flow cytometry (reference value: 0.48 %).
Experiment [8] deals with SK-OV-3. The experiment can be described thus: Induction of apoptosis in human SK-OV-3 cells assessed as viable cells at 5 nM incubated for 48 hrs by Annexin V-APC-A/7-AAD-A staining based flow cytometry (reference value: 97.17 %). The following applies: read-out: Activity.
For experiment [9], the system named is SK-OV-3. The experiment can be described thus: Inhibition of cell migration in human SK-OV-3 cells assessed as relative wound density at 2.5 nM incubated for 24 hrs by wound healing assay (reference value: 74.53 %). Set-up: scale not given: the % may be the effect or the level left.
In experiment [10] the test system is SK-OV-3. The experiment can be described thus: Induction of apoptosis in human SK-OV-3 cells assessed as necrotic cells at 2.5 nM incubated for 48 hrs by Annexin V-APC-A/7-AAD-A staining based flow cytometry (reference value: 0.48 %).
The test system of experiment [11] is SK-OV-3. The experiment can be described thus: Inhibition of cell migration in human SK-OV-3 cells assessed as relative wound density at 5 nM incubated for 24 hrs by wound healing assay (reference value: 74.53 %). Further details: scale not given: the % may be the effect or the level left.
In experiment [12] the test system is SK-OV-3. The experiment can be described thus: Induction of apoptosis in human SK-OV-3 cells assessed as late apoptotic cells at 0.625 nM incubated for 48 hrs by Annexin V-APC-A/7-AAD-A staining based flow cytometry (reference value: 1.22 %).
Experiment [13] deals with SK-OV-3. The experiment can be described thus: Induction of apoptosis in human SK-OV-3 cells assessed as early apoptotic cells at 0.625 nM incubated for 48 hrs by Annexin V-APC-A/7-AAD-A staining based flow cytometry (reference value: 1.12 %).
In experiment [14] the test system is SK-OV-3. The experiment can be described thus: Inhibition of cell migration in human SK-OV-3 cells assessed as relative wound density at 0.625 nM incubated for 24 hrs by wound healing assay (reference value: 74.53 %). Further details: scale not given: the % may be the effect or the level left.
The test system of experiment [15] is SK-OV-3. The experiment can be described thus: Induction of apoptosis in human SK-OV-3 cells assessed as late apoptotic cells at 2.5 nM incubated for 48 hrs by Annexin V-APC-A/7-AAD-A staining based flow cytometry (reference value: 1.22 %).
For experiment [16], the system named is SK-OV-3. The experiment can be described thus: Induction of apoptosis in human SK-OV-3 cells assessed as necrotic cells at 5 nM incubated for 48 hrs by Annexin V-APC-A/7-AAD-A staining based flow cytometry (reference value: 0.21 %).
Experiment [17] deals with SK-OV-3. The experiment can be described thus: Induction of apoptosis in human SK-OV-3 cells assessed as viable cells at 2.5 nM incubated for 48 hrs by Annexin V-APC-A/7-AAD-A staining based flow cytometry (reference value: 97.50 %). The following applies: read-out: Activity.
The test system of experiment [18] is SK-OV-3. The experiment can be described thus: Induction of apoptosis in human SK-OV-3 cells assessed as viable cells at 5 nM incubated for 48 hrs by Annexin V-APC-A/7-AAD-A staining based flow cytometry (reference value: 97.50 %). The following applies: read-out: Activity.
Experiment [19] relates to SK-OV-3. The experiment can be described thus: Inhibition of cell migration in human SK-OV-3 cells assessed as relative wound density at 1.25 nM incubated for 24 hrs by wound healing assay (reference value: 61.61 %). Set-up: scale not given: the % may be the effect or the level left.
In experiment [20] the test system is SK-OV-3. The experiment can be described thus: Induction of apoptosis in human SK-OV-3 cells assessed as late apoptotic cells at 5 nM incubated for 48 hrs by Annexin V-APC-A/7-AAD-A staining based flow cytometry (reference value: 1.20 %).
The subject of experiment [21] is SK-OV-3. The experiment can be described thus: Induction of apoptosis in human SK-OV-3 cells assessed as early apoptotic cells at 2.5 nM incubated for 48 hrs by Annexin V-APC-A/7-AAD-A staining based flow cytometry (reference value: 1.10 %).
Experiment [22] relates to SK-OV-3. The experiment can be described thus: Induction of cell cycle arrest at G2/M phase in human SK-OV-3 cells at 0.625 nM incubated for 24 hrs by PI staining based flow cytometry (reference value: 30.13 %).
Experiment [23] has as its system SK-OV-3. The experiment can be described thus: Induction of apoptosis in human SK-OV-3 cells assessed as early apoptotic cells at 1.25 nM incubated for 48 hrs by Annexin V-APC-A/7-AAD-A staining based flow cytometry (reference value: 1.10 %).
For experiment [24], the system named is SK-OV-3. The experiment can be described thus: Inhibition of cell migration in human SK-OV-3 cells assessed as relative wound density at 5 nM incubated for 24 hrs by wound healing assay (reference value: 61.61 %). Further details: scale not given: the % may be the effect or the level left.
The test system of experiment [25] is SK-OV-3. The experiment can be described thus: Induction of apoptosis in human SK-OV-3 cells assessed as early apoptotic cells at 5 nM incubated for 48 hrs by Annexin V-APC-A/7-AAD-A staining based flow cytometry (reference value: 1.10 %).
Experiment [26] deals with SK-OV-3. The experiment can be described thus: Inhibition of cell migration in human SK-OV-3 cells assessed as relative wound density at 0.625 nM incubated for 24 hrs by wound healing assay (reference value: 61.61 %). Further details: scale not given: the % may be the effect or the level left.
For experiment [27], the system named is SK-OV-3. The experiment can be described thus: Induction of cell cycle arrest at G2/M phase in human SK-OV-3 cells at 2.5 nM incubated for 24 hrs by PI staining based flow cytometry (reference value: 30.13 %).
Experiment [28] concerns SK-OV-3. The experiment can be described thus: Induction of cell cycle arrest at G2/M phase in human SK-OV-3 cells at 5 nM incubated for 24 hrs by PI staining based flow cytometry (reference value: 30.13 %).
Experiment [29] concerns SK-OV-3. The experiment can be described thus: Induction of apoptosis in human SK-OV-3 cells assessed as viable cells at 0.625 nM incubated for 48 hrs by Annexin V-APC-A/7-AAD-A staining based flow cytometry (reference value: 97.50 %). The settings on record: read-out: Activity.
Experiment [30] relates to SK-OV-3. The experiment can be described thus: Induction of apoptosis in human SK-OV-3 cells assessed as viable cells at 1.25 nM incubated for 48 hrs by Annexin V-APC-A/7-AAD-A staining based flow cytometry (reference value: 97.50 %). The settings on record: read-out: Activity.
For experiment [31], the system named is SK-OV-3. The experiment can be described thus: Induction of apoptosis in human SK-OV-3 cells assessed as late apoptotic cells at 2.5 nM incubated for 48 hrs by Annexin V-APC-A/7-AAD-A staining based flow cytometry (reference value: 1.20 %).
Experiment [32] deals with SK-OV-3. The experiment can be described thus: Induction of apoptosis in human SK-OV-3 cells assessed as necrotic cells at 1.25 nM incubated for 48 hrs by Annexin V-APC-A/7-AAD-A staining based flow cytometry (reference value: 0.21 %).

Consider `COc1ccc2c(c1)NC(=O)CN2c1nc(Cl)nc2ccsc12`, for which the viability at 0.00125 µM in the experiment with SK-OV-3 [1] turned out to be 54.3%. Further, the viability at 0.000625 µM in the experiment on SK-OV-3 [2] is 81%. Besides, the Activity in the experiment with SK-OV-3 [3] came out at 2.06%; in the experiment on SK-OV-3 [4], 41.72%; in the experiment on SK-OV-3 [5] it was 4.63%; in the experiment on SK-OV-3 [6] it was 4.64%; in the experiment with SK-OV-3 [7], 0.91%; in the experiment on SK-OV-3 [9], 9.35%. Also, the Activity is listed as 2.32% in the experiment with SK-OV-3 [10]; 7.98% with SK-OV-3 [11]; 2.48% with SK-OV-3 [12]; 15.61% with SK-OV-3 [13]; 67.94% with SK-OV-3 [14]; 4.71% in the experiment with SK-OV-3 [15]. Also, the viability at 0.005 µM with SK-OV-3 [8] came to 62.1%.

With `COc1ccc(N(C)c2nc(Cl)nc3ccn(C)c23)cc1`, the Activity worked out at 2.25% in the experiment with SK-OV-3 [16]; 54.94% in the experiment on SK-OV-3 [19]; 3.86% in the experiment with SK-OV-3 [20]; 20.62% with SK-OV-3 [21]; 32.3% in the experiment on SK-OV-3 [22]; 2.83% in the experiment with SK-OV-3 [23]. Moreover, the Activity with SK-OV-3 [24] is 12.11%; with SK-OV-3 [25], 39.84%; with SK-OV-3 [26], 58.03%; in the experiment with SK-OV-3 [27] it was 52.19%; in the experiment with SK-OV-3 [28] it was 87.47%; with SK-OV-3 [31] it was 2.27%. For the same molecule, the Activity in the experiment with SK-OV-3 [32] was determined as 0.56%. Also, in the experiment with SK-OV-3 [17], the viability at 0.0025 µM turned out to be 75.9%. Besides, in the experiment with SK-OV-3 [18], the viability at 0.005 µM came out at 54%. The viability at 0.000625 µM in the experiment with SK-OV-3 [29] is 96.2%. In addition, in the experiment with SK-OV-3 [30], the viability at 0.00125 µM amounted to 94.1%.
